{
  "source": "patent US20140315972A1",
  "about": "“RS)-2-(2-oxo-4-phenylpyrrolidin-1-yl)acetamide compound having modulatory activity with a commensurate effect, pharmaceutical substance (variants) and its application, composition (variants) thereof” (priority 2011, published 2014)",
  "assay_type_in_all_cases": "in vivo",
  "key": {"rats": {"system": "rats", "assay": "14-day immobilization in antiorthostatic position (Ds), thymus, spleen, adrenal mass ratios Kt", "conditions": "Ds-conditions; for S/A: spleen/adrenals ratio (mg/100 g baseline body weight); for S/T: spleen/thymus ratio (mg/100 g baseline body weight); for T/A: thymus/adrenals ratio (mg/100 g baseline body weight)"}, "mice [1]": {"system": "mice", "assay": "Electric extremities pain stimulation, thresholds TA, TFC, TF"}, "mice [2]": {"system": "mice", "assay": "Cross maze exploratory behavior, HEF and LEF mice", "conditions": "i.p. once a day 5 days, Compounds 1 and 4 100 mg/kg, Piracetam 200 mg/kg"}, "mice [3]": {"system": "mice", "assay": "Hypobaric hypoxia in pressure chamber, adult mice", "conditions": "for Duration of life: adult mice, hypobaric hypoxia"}, "rabbits": {"system": "rabbits", "assay": "Transcallosal stimulation induced potential (TSIP)", "conditions": "Piracetam 300-500, Pyritinol 50-150, Phenotropil 25-300 mg/kg"}, "mice [4]": {"system": "mice", "assay": "Duration of swimming in cold (2° C.) and normal (25° C.) water", "conditions": "single dose 2.5 mg/kg i.p.", "procedure": "Stimulatory effect on the duration of swimming in cold (2° C.) and normal (25° C.) water (Table 8.1-8.1.1) of Phenotropil (25 and 50 mg/kg) compared with the control (distilled water) and Benzedrine (2.5 mg/kg) was studied in white outbred male mice (18-26 g) compared to control (distilled water) when intraperitoneally administered, 60 min after the administration and with a course administration for 4 weeks administration on day 28 (Table 8.1.2). […] At normal temperature of water, the effect of Benzedrine was not modified and stayed at 34%.\nThe advantage of psychomodulator Phenotropil is obvious both with the single dose and the course use, by the effect on physical performance and stability of the body, both in normal and more adverse temperature conditions."}, "mice [5]": {"system": "mice", "assay": "Benzedrine-induced stimulation of orientation-locomotor activity", "conditions": "mice; Benzedrine 3.0 mg/kg alone", "description": "In regard to influencing the effects of Benzedrine, Phenotropil also can provide, depending on the dose, the diametrically opposite activity when in combination with psychostimulants. This fact must be taken into account in combined use of various pharmacological agents."}},
  "note": "Marks after values point to notes of the source that are not given here.",
  "data": [
    {"molecule": "NC(=O)CN1CC(c2ccccc2)CC1=O", "note": "(stereo not drawn) [Fepiron (−)]", "values": [
      {"measurement": "S/A", "setting": "rats; 200 mg/kg", "result": "9.0 ± 0.5"},
      {"measurement": "S/T", "setting": "rats; 200 mg/kg", "result": "4.9 ± 0.7"},
      {"measurement": "T/A", "setting": "rats; 200 mg/kg", "result": "1.9 ± 0.3"}
    ]},
    {"molecule": "NC(=O)CN1CCCC1=O", "note": "[Piracetam]", "values": [
      {"measurement": "decrease in the aggression threshold (TF)", "setting": "mice [1]; 100 mg/kg", "result": 11.3, "unit": "%"},
      {"measurement": "lowering of threshold of emotional reactivity (TFC)", "setting": "mice [1]; 100 mg/kg", "result": 23.5, "unit": "%"},
      {"measurement": "reduction of the pain threshold (TA)", "setting": "mice [1]; 100 mg/kg", "result": 43.6, "unit": "%"},
      {"measurement": "TA (threshold of attention) vs control", "setting": "mice [1]; 100 mg/kg i.p.", "result": "−43.6 * %"},
      {"measurement": "TF (threshold of aggression) vs control", "setting": "mice [1]; 100 mg/kg i.p.", "result": "−11.3 * %"},
      {"measurement": "TFC (threshold of first cheep) vs control", "setting": "mice [1]; 100 mg/kg i.p.", "result": "−23.5 * %"},
      {"measurement": "lowering of threshold of emotional reactivity (TFC)", "setting": "mice [1]; 200 mg/kg", "result": 47.0, "unit": "%"},
      {"measurement": "reduction of the pain threshold (TA)", "setting": "mice [1]; 200 mg/kg", "result": 48.1, "unit": "%"},
      {"measurement": "TA (threshold of attention) vs control", "setting": "mice [1]; 200 mg/kg i.p.", "result": "−48.1 * %"},
      {"measurement": "TFC (threshold of first cheep) vs control", "setting": "mice [1]; 200 mg/kg i.p.", "result": "−47.0 * %"},
      {"measurement": "TF (threshold of aggression) vs control", "setting": "mice [1]; 200 mg/kg i.p., 200 mg/kg", "result": "−15.7 * %"},
      {"measurement": "TF (threshold of aggression) vs control", "setting": "mice [1]; 200 mg/kg i.p., listed as Pyracetam, 200 mg/kg", "result": 25.7, "unit": "%"},
      {"measurement": "reduction of the pain threshold (TA)", "setting": "mice [1]; 300 mg/k (so in the source)", "result": 19.9, "unit": "%"},
      {"measurement": "increase of aggression threshold (TF)", "setting": "mice [1]; 300 mg/kg (so in the source)", "result": 7.4, "unit": "%"},
      {"measurement": "TA (threshold of attention) vs control", "setting": "mice [1]; 400 mg/kg i.p.", "result": "−20.0 * %"},
      {"measurement": "TF (threshold of aggression) vs control", "setting": "mice [1]; 400 mg/kg i.p.", "result": "−7.4", "unit": "%"},
      {"measurement": "TFC (threshold of first cheep) vs control", "setting": "mice [1]; 400 mg/kg i.p.", "result": "+5.0%"},
      {"measurement": "Kt (trigger transmission coefficient)", "setting": "mice [2]; HEF mice", "result": "3.1 ± 0.45"},
      {"measurement": "Number of compartment explorations", "setting": "mice [2]; HEF mice", "result": "4.2 ± 0.7 //"},
      {"measurement": "Number of surveillances", "setting": "mice [2]; HEF mice", "result": "1.9 ± 0.2"},
      {"measurement": "Kt (trigger transmission coefficient)", "setting": "mice [2]; LEF mice", "result": "2.4 ± 0.5"},
      {"measurement": "Number of compartment explorations", "setting": "mice [2]; LEF mice", "result": "5.3 ± 0.8 //"},
      {"measurement": "Number of surveillances", "setting": "mice [2]; LEF mice", "result": "2.2 ± 0.2"},
      {"measurement": "Kt (trigger transmission coefficient)", "setting": "mice [2]; population as a whole", "result": "1.3 ± 0.45"},
      {"measurement": "Number of compartment explorations", "setting": "mice [2]; population as a whole", "result": "4.6 ± 0.7 //"},
      {"measurement": "Number of surveillances", "setting": "mice [2]; population as a whole", "result": "2.0 ± 0.2"},
      {"measurement": "shortening of survival time vs control", "setting": "mice [3]; 600 mg/kg", "result": 35.0, "unit": "%"},
      {"measurement": "increase of survival time vs control", "setting": "mice [3]; 900-2000 mg/kg", "result": 78.0, "unit": "%"},
      {"measurement": "Duration of life", "setting": "mice [3]; 600 mg/kg", "result": "1.5 ± 0.6", "unit": "min"},
      {"measurement": "Duration of life", "setting": "mice [3]; 900 mg/kg", "result": "4.0 ± 0.6", "unit": "min"},
      {"measurement": "Duration of life", "setting": "mice [3]; 2000 mg/kg", "result": "4.2 ± 0.4", "unit": "min"},
      {"measurement": "TSIP P1 + N1 amplitude", "setting": "rabbits", "result": "++ (amplitude increase by 30 to 50%)"},
      {"measurement": "TSIP component N1 amplitude", "setting": "rabbits", "result": "++ (amplitude increase by 30 to 50%)"},
      {"measurement": "TSIP component P1 amplitude", "setting": "rabbits", "result": "+++ (amplitude increase by more than 50%)"},
      {"measurement": "TSIP component P2 amplitude", "setting": "rabbits", "result": "+ (amplitude increase by less than 50%)"},
      {"measurement": "S/A", "setting": "rats; 200 mg/kg", "result": "12.1 ± 1.5"},
      {"measurement": "S/T", "setting": "rats; 200 mg/kg", "result": "7.4 ± 0.7"},
      {"measurement": "T/A", "setting": "rats; 200 mg/kg", "result": "1.6 ± 0.2"},
      {"measurement": "S/A", "setting": "rats; 400 mg/kg", "result": "10.8 ± 1.3"},
      {"measurement": "S/T", "setting": "rats; 400 mg/kg", "result": "7.2 ± 0.4"},
      {"measurement": "T/A", "setting": "rats; 400 mg/kg", "result": "1.5 ± 0.1"},
      {"measurement": "S/A", "setting": "rats; 600 mg/kg", "result": "10.2 ± 0.1"},
      {"measurement": "S/T", "setting": "rats; 600 mg/kg", "result": "4.0 ± 0.1"},
      {"measurement": "T/A", "setting": "rats; 600 mg/kg", "result": "2.6 ± 0.1"}
    ]},
    {"molecule": "NCC(CC(=O)O)c1ccccc1", "note": "(stereo not drawn) [Phenibut (−)]", "values": [
      {"measurement": "S/A", "setting": "rats; 50 mg/kg", "result": "12.0 ± 0.3"},
      {"measurement": "S/T", "setting": "rats; 50 mg/kg", "result": "4.8 ± 0.3"},
      {"measurement": "T/A", "setting": "rats; 50 mg/kg", "result": "2.5 ± 0.3"}
    ]},
    {"molecule": "CN1C(=O)CN=C(c2ccccc2)c2cc(Cl)ccc21", "note": "[Seduxen]", "values": [
      {"measurement": "S/A", "setting": "rats; 2 mg/kg", "result": "7.6 ± 0.2"},
      {"measurement": "S/T", "setting": "rats; 2 mg/kg", "result": "3.6 ± 0.1"},
      {"measurement": "T/A", "setting": "rats; 2 mg/kg", "result": "2.2 ± 1.4"}
    ]},
    {"molecule": "O=C1CC(c2ccccc2)CN1", "note": "(racemic) [Fepiron, 4(R,S)-feniilpirrolidin-2-one]", "values": [
      {"measurement": "TA (threshold of attention) vs control", "setting": "mice [1]; 25 mg/kg i.p.", "result": 0.0, "unit": "%"},
      {"measurement": "TFC (threshold of first cheep) vs control", "setting": "mice [1]; 25 mg/kg i.p.", "result": "−5.7", "unit": "%"},
      {"measurement": "TA (threshold of attention) vs control", "setting": "mice [1]; 50 mg/kg i.p.", "result": "+5.0%"},
      {"measurement": "TFC (threshold of first cheep) vs control", "setting": "mice [1]; 50 mg/kg i.p.", "result": "+11.4 * %"},
      {"measurement": "TA (threshold of attention) vs control", "setting": "mice [1]; 100 mg/kg i.p.", "result": "+12.5 * %"},
      {"measurement": "TFC (threshold of first cheep) vs control", "setting": "mice [1]; 100 mg/kg i.p.", "result": "+2.8%"},
      {"measurement": "increase of survival time vs control", "setting": "mice [3]; 100 mg/kg", "result": 47.8, "unit": "%"},
      {"measurement": "effect on survival of the animals", "setting": "mice [3]; 25-50 mg/kg", "result": "did not affect the survival of the animals"},
      {"measurement": "Duration of life", "setting": "mice [3]; 25 mg/kg", "result": "2.3 ± 0.2^ min"},
      {"measurement": "Duration of life", "setting": "mice [3]; 50 mg/kg", "result": "2.7 ± 0.2^ min"},
      {"measurement": "Duration of life", "setting": "mice [3]; 100 mg/kg", "result": "3.4 ± 0.2", "unit": "min"},
      {"measurement": "S/A", "setting": "rats; 50 mg/kg", "result": "11.3 ± 0.3"},
      {"measurement": "S/T", "setting": "rats; 50 mg/kg", "result": "5.4 ± 0.3"},
      {"measurement": "T/A", "setting": "rats; 50 mg/kg", "result": "2.1 ± 0.2"},
      {"measurement": "S/A", "setting": "rats; 100 mg/kg", "result": "9.0 ± 0.3"},
      {"measurement": "S/T", "setting": "rats; 100 mg/kg", "result": "5.4 ± 0.3"},
      {"measurement": "T/A", "setting": "rats; 100 mg/kg", "result": "1.6 ± 0.3"},
      {"measurement": "S/A", "setting": "rats; 200 mg/kg", "result": "9.4 ± 0.4"},
      {"measurement": "S/T", "setting": "rats; 200 mg/kg", "result": "9.5 ± 0.9"},
      {"measurement": "T/A", "setting": "rats; 200 mg/kg", "result": "1.0 ± 0.1"}
    ]},
    {"molecule": "CC(N)Cc1ccccc1", "note": "(centres unmarked) [Benzedrine, reference compound]", "values": [
      {"measurement": "Duration of swimming", "setting": "mice [4]", "result": "160.70 ± 11.75", "unit": "min"},
      {"measurement": "Duration of swimming", "setting": "mice [4]; water 2° C.", "result": "1.60 ± 0.2", "unit": "min"},
      {"measurement": "Number of pulses for 3 min.", "setting": "mice [5]", "result": "84.3 ± 7.9"},
      {"measurement": "Number of stand-ups for 3 min.", "setting": "mice [5]", "result": "14.2 ± 1.8"}
    ]}
  ]
}
